Assay results taken from US8088819B2, “Derivatives of substituted 3-phenyl-1-(phenylthienyl)propan-1-ones and of 3-phenyl-1-(phenylfuranyl) propan-1-ones, preparation and use” (priority 2006, dated 2012).

System: target genes of the PPARs
Test: Expression of target genes of the PPARs in hepatic and muscle tissues of the db/db mouse, quantitative RT-PCR
Assay type: in vivo
Details: db/db mice; 50 mpk; 28 days
Method: The efficacy of the compound according to the invention is also evaluated by measuring, in the hepatic and muscle tissues, the expression of genes involved in carbohydrate and lipid metabolism, and the dissipation of energy. The levels of expression of each gene are normalized relative to the level of expression of the reference genes 36B4 in the liver and 18S in the skeletal muscle. The induction factor, i.e. the ratio of the relative signal (induced by the compound according to the invention) to the mean of the relative values of the control group, is then calculated. The higher this factor, the greater the gene expression activating character of the compound. The final result is represented as the mean of the induction values in each experimental group.
Female db/db mice were kept under a cycle of light and darkness of 12/12 hours at a constant temperature of 20±3° C. After acclimation for one week, the mice were weighed and put in groups of 8 animals selected so that the distribution of their body weight and of their plasma lipid levels, determined for the first time before the experiment, are uniform. The test compounds were suspended in carboxymethylcellulose (Sigma C4888) and administered by intragastric force feeding, at a rate of once per day for 28 days at the chosen dose. The animals had free access to water and to food (standard diet). The food intake and the weight gain are recorded throughout the experiment. At the end of the experiment, the animals were anesthetized after fasting for 4 hours, a blood sample was taken using anticoagulant (EDTA), then the mice were weighed and euthanased. The plasma was separated by centrifugation at 3000 rev/min for 20 minutes, and the samples were stored at +4° C.
Samples of hepatic and muscle tissues were taken and frozen immediately in liquid nitrogen and then stored at −80° C. for later analyses. […]
1 μg of total RNA (quantified by UV spectrophotometry) was then reverse-transcribed to complementary DNA by reaction for 1 hour at 37° C. in a total volume of 30 μl containing buffer 1× (Invitrogen), 1.5 mM of DTT, 0.18 mM of dNTPs (Promega), 200 ng of pdN6 (Amersham), 30 U of RNase inhibitor (Promega) and 1 μl of MMLV-RT (Invitrogen).
The quantitative PCR experiments were carried out using the MyiQ Single-Color Real-Time PCR Detection System (Biorad, Marnes-la-Coquette, France) and were performed using the iQ SYBR Green Supermix kit following the supplier's recommendations, in 96-well plates, on 5 μL of diluted reverse-transcription reaction mixture with a hybridization temperature of 60° C. […]
The amount of fluorescence emitted is directly proportional to the amount of complementary DNA present at the start of the reaction and amplified during PCR. […] The relative expression levels of each target are thus determined using the efficacy curves obtained with the points in the range.
The levels of expression of the genes of interest were then normalized, […] relative to the level of expression of the reference gene 36B4 (whose specific primers are: sense primer: 5′-[…]-3′ (SEQ ID No. 19) and antisense primer: 5′-[…]-3′ (SEQ ID No. 20)), and in the muscle tissue relative to the level of expression of the reference gene 18S (whose specific primers are: sense primer: 5′-[…]-3′ (SEQ ID No. 21) and antisense primer: 5′-[…]-3′ (SEQ ID No. 22)). The induction factor was calculated for each sample. […]

CC(C)(Oc1ccc(CCC(=O)c2ccc(-c3ccc(C(F)(F)F)cc3)s2)c(Cl)c1Cl)C(=O)O [Compound 2, 2-(2,3-dichloro-4-(3-oxo-3-(5-(4-(trifluoromethyl)phenyl)thien-2-yl)propyl)phenoxy)-2-methylpropanoic acid]
significant increase: expression of the gene coding for ACOX1 in the liver | expression of the gene coding for CPT1b in the skeletal muscle | expression of the gene coding for PDK4 in the liver | expression of the gene coding for PDK4 in the skeletal muscle | expression of the gene coding for UCP2 in the skeletal muscle
